Test systems include MV4-11; CMS; CHRF288-11; MOLM-13; ML-2; M07e; U937; CMK.
Common to all, as to set-up: species or system AML cell lines (8); Primary HTS, single concentration about 10 uM, Cell Titer Glo viability; log10 luminescence, per cent inhibition relative to cycloheximide control
Conditions in all cases: 72 h, relative to cycloheximide control, log10 luminescence; inhibitor
For orientation: In ATP-based viability assays light output follows the ATP content of the culture.

With `O=C1NC(=NCCc2ccc(Br)cc2)S/C1=C\c1ccc2ncccc2c1` [SJ000580974-1], in the experiment on MV4-11, the MV4-11 %inh turned out to be 2.317%. In the experiment with CMS, the CMS %inh was -2.579%. In the experiment with CHRF288-11, the CHRF288-11 %inh was -1.536%. Further, the MOLM-13 %inh with MOLM-13 was determined as 0.9588%. The ML-2 %inh in the experiment on ML-2 is on record as -0.9884%. Moreover, the M07e %inh with M07e was -0.6831%. In the experiment on U937, the U937 %inh was -2.102%. In addition, in the experiment on CMK, the CMK %inh was 0.3303%.

With `Cc1cccc(Nc2ncc(-c3ccccc3)o2)c1` [SJ000573031-1, U21834/25/1], the MV4-11 %inh in the experiment on MV4-11 is 58.38%. Also, the CMS %inh in the experiment on CMS was 1.47%. In the experiment on CHRF288-11, the CHRF288-11 %inh came out at 1.444%. Besides, the MOLM-13 %inh with MOLM-13 is reported as 78.79%. Besides, in the experiment on ML-2, the ML-2 %inh was 2.781%. Also, in the experiment on M07e, the M07e %inh is given as 2.356%. In addition, in the experiment on U937, the U937 %inh is 0.1537%. The same compound gave a CMK %inh with CMK of 4.152%.

Turning to `Cc1ccc(NC(=O)CC2CC2)cc1-c1ccc(C(=O)NCC2CC2)cc1` [SJ000573098-1, R7387/20/3], the MV4-11 %inh in the experiment with MV4-11 is listed as 0.255%. In addition, the CMS %inh in the experiment with CMS was found to be 1.599%. In addition, the CHRF288-11 %inh in the experiment on CHRF288-11 is on record as 2.428%. Moreover, the MOLM-13 %inh in the experiment on MOLM-13 stood at 0.2753%. Further, the ML-2 %inh in the experiment with ML-2 is given as -2.089%. The M07e %inh in the experiment on M07e is -0.8105%. In addition, in the experiment with U937, the U937 %inh was 1.321%. In the experiment with CMK, this compound showed a CMK %inh of 4.183%.

Take `Cn1c(=O)c(Oc2ccc(F)cc2F)cc2cnc(NCCS(C)(=O)=O)nc21` [SJ000580964-1]: the MV4-11 %inh in the experiment on MV4-11 is 3.561%. For the same compound, in the experiment on CMS, the CMS %inh was -1.101%. Moreover, the CHRF288-11 %inh in the experiment on CHRF288-11 is on record as -0.5727%. In addition, the MOLM-13 %inh in the experiment on MOLM-13 came to 0.541%. The ML-2 %inh in the experiment on ML-2 was -0.4027%. Moreover, the M07e %inh in the experiment with M07e is reported as -0.966%. In addition, the U937 %inh in the experiment with U937 came to 5.046%. In the experiment with CMK, this compound showed a CMK %inh of 2.942%.

`Cn1cc(C2=C(Sc3ccccc3)C(=O)NC2=O)c2ccccc21` [SJ000581108-1]: the MV4-11 %inh in the experiment with MV4-11 turned out to be 3.129%. In the experiment with CMS, the CMS %inh was 5.691%. Further, the CHRF288-11 %inh in the experiment with CHRF288-11 came to 15.38%. Further, in the experiment with MOLM-13, the MOLM-13 %inh is given as 79.89%. In addition, in the experiment with ML-2, the ML-2 %inh is listed as 5.065%. Also, the M07e %inh in the experiment on M07e was found to be 13.92%. For the same compound, the U937 %inh in the experiment with U937 turned out to be 7.938%. Also, the CMK %inh in the experiment with CMK is 17.14%.

In the case of `CC[N+](C)(CC)CCOC(=O)C(O)(c1ccccc1)C1CCCCC1` (stereo not shown) [SJ000555718-1, OXYPHENONIUM BROMIDE], in the experiment with MV4-11, the MV4-11 %inh worked out at 4.785%. The CMS %inh in the experiment with CMS is reported as -0.491%. The CHRF288-11 %inh with CHRF288-11 came out at 89.25%. Besides, in the experiment with MOLM-13, the MOLM-13 %inh was found to be 7.019%. Further, the ML-2 %inh in the experiment on ML-2 is 3.325%. In addition, in the experiment with M07e, the M07e %inh is reported as -3.166%. Besides, the U937 %inh with U937 was 4.807%. Moreover, the CMK %inh in the experiment with CMK came out at 0.4248%.

Consider `N#Cc1c(NC(=O)c2cccc3ccccc23)sc2c1CCCC2` [SJ000573026-1, R15619/70/1 | TCS JNK 5A | JNK INHIBITOR IX | | TCS JNK 5A], for which the MV4-11 %inh in the experiment on MV4-11 amounted to 80.18%. Further, the CMS %inh in the experiment with CMS came out at 100.8%. Besides, the CHRF288-11 %inh in the experiment with CHRF288-11 was found to be 42.98%. Besides, the MOLM-13 %inh with MOLM-13 was found to be 87.75%. Further, the ML-2 %inh in the experiment with ML-2 was determined as 58.68%. Moreover, the M07e %inh in the experiment on M07e amounted to 97.41%. The U937 %inh in the experiment on U937 was 83.53%. For the same compound, the CMK %inh in the experiment on CMK worked out at 122.9%.

On to `CCOc1nccc2c1nc(-c1nonc1N)n2CC` [SJ000573270-1, DW100508-082A1], for which the MV4-11 %inh in the experiment with MV4-11 is on record as -0.5042%. For the same compound, in the experiment on CMS, the CMS %inh is -3.21%. Also, in the experiment with CHRF288-11, the CHRF288-11 %inh stood at 53.12%. Also, in the experiment on MOLM-13, the MOLM-13 %inh was -1.635%. Moreover, in the experiment with ML-2, the ML-2 %inh was 28.26%. In the experiment with M07e, the M07e %inh is -0.5841%. Also, the U937 %inh in the experiment on U937 is -1.837%. The same compound showed a CMK %inh in the experiment with CMK of 45.39%.

(Values after publication PMC6522510 (Nature Communications, 2019).)
